Experimental data from patent US20260207614A1, “IRAK4 DEGRADERS AND USES THEREOF” (Kymera Therapeutics, Inc., priority 2022, published 2026).
Entries after “also recorded” stand apart in the source; their conditions may differ.

What was measured:
[1] = test system: disease-relevant cytokines ex vivo; test: Phase 1 Part C ex vivo cytokine stimulation assays; format: in vivo, human
Description: Plots show median of the maximum change from baseline between Days 7-14 in MAD3 and Days 14-28 in Part C.
IL-36, IFN-g, IL-8, IL-5, GZMB and COX2 in HS and IL-5, IL-31, NLRP3, CXCL1 and IL-2RB in AD (FIG. 25A-B).

[2] = target: T1, breast cancer resistance protein (BCRP) (Homo sapiens, UniProt Q9UNQ0); test: BCRP substrate and efflux inhibition in vitro; format: in vitro ADME
T1 sequence (Q9UNQ0 1-655): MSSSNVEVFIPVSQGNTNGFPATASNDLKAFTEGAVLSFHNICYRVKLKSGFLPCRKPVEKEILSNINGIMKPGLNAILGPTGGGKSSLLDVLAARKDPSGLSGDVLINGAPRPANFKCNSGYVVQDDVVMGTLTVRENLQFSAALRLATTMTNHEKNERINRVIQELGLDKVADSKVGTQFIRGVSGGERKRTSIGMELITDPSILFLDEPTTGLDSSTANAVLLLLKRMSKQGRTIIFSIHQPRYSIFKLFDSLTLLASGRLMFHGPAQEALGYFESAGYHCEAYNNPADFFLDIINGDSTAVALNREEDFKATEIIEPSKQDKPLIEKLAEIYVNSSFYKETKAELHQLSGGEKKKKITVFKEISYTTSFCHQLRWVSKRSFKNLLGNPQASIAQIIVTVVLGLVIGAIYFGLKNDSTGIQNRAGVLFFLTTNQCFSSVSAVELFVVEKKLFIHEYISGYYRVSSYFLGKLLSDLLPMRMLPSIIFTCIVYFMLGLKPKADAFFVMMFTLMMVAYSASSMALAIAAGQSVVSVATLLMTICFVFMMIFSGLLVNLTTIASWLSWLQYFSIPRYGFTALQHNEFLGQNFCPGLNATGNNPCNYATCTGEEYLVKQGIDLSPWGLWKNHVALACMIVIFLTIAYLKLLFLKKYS
Description: (§1) In in vivo pharmacokinetic (PK) studies conducted in rats, dogs, and monkeys.
Metabolites generated in liver microsomes from humans were also detected in those from rat, dog, and monkey. In the in vitro drug-drug interaction studies.

[3] = test system: TLR agonist (lipopolysaccharide and R848) and IL-1β-induced proinflammatory cytokine production; test: In vitro cytokine release assays in PBMCs; format: cell-based; settings: LPS
[4] = Distribution studies in rats; format: in vivo
Description: as §1

[5] = test system: ex vivo proinflammatory cytokine induction by R848 and LPS in whole blood; test: Phase 1 MAD ex vivo cytokine induction by R848 and LPS in whole blood; set-up: species or system human; settings: daily up to about 200 mg, Day 7-14, FIG. 16
Description: In some embodiments, the cytokines include IFN-γ, IL-12, IL-1β, IL-10, IL-6, TNF-α, IL-8, IL-17, and IL-23.

[6] = test system: R848 (TLR7)-stimulated cytokine induction in whole blood; test: Phase 1 SAD ex vivo R848-stimulated cytokine induction in whole blood; set-up: species or system human
Phase 1 Part C safety = format: in vivo, human
Phase 1 MAD safety = format: in vivo, human; settings: multiple daily doses over 14 days up to 200 mg (MAD 4)
Description: Steady-state plasma levels were reached by Day 7, with approximately 3-fold increase in exposure on Day 14 compared to Day 1.

[7] = test system: patients with hidradenitis suppurativa (HS); test: Phase 1 Part C clinical efficacy in hidradenitis suppurativa; format: in vivo, human; settings: for ΔAN Count / ΔPain NRS / ΔPeak Pruritis NRS / Responders: AN Count 0/1/2 / Responders: HiSCR50 / Responders: HiSCR75 / Responders: Pain NRS30: HS; for ΔAN Count: deepest reduction across Days 28 through 42; for ΔPain NRS / ΔPeak Pruritis NRS: deepest reduction, past week; for Responders: AN Count 0/1/2 / Responders: HiSCR50 / Responders: HiSCR75 / Responders: Pain NRS30: highest response across Days 28 through 42
Description: Baseline Characteristics and Disposition: A total of 21 patients were enrolled in the trial, including 13 HS and 8 AD patients, with median age 31-40 years (13 female, 8 male). Disease severity for HS was moderate (10), severe (1) and very severe (2) and for AD was mild (1), moderate (5) and severe (2). One HS and 1 AD patient withdrew from treatment early due to personal reasons, resulting in 12 HS and 7 AD patients evaluable for PD and clinical efficacy.
HS clinical endpoints collected in the study included AN count, Pain NRS. Pruritus NRS and HS-PGA. […] Analyses were done for all patients, including very severe (n=12), and for patients with only moderate to severe disease (n=10).

[8] = Phase 1 Part C Compound A skin concentration; format: in vivo, human; settings: FIG. 20, Day 28
[9] = R848, whole blood, 24-48 hours, Cohort 7

## Cn1c(=O)n([C@@H]2CCC(=O)NC2=O)c2cccc(C#CCOC3CCN(C[C@H]4CC[C@H](n5cc(NC(=O)c6cnn7ccc(N8C[C@H]9C[C@@H]8CO9)nc67)c(C(F)F)n5)CC4)CC3)c21 [Compound A, 5-((1R,4R)-2-oxa-5-azabicyclo[2.2.1]heptan-5-yl)-N-(3-(difluoromethyl)-1-((1r,4R)-4-((4-((3-(1-(2,6-dioxopiperidin-3-yl)-3-methyl-2-oxo-2,3-dihydro-1H-benzo[d]imidazol-4-yl)prop-2-yn-1-yl)oxy)piperidin-1-yl)methyl)cyclohexyl)-1H-pyrazol-4-yl)pyrazolo[1,5-a]pyrimidine-3-carboxamide]
[1]; AD patients
  inhibition of disease-relevant cytokines ex vivo, maximum: up to 98%
[1]; AD patients, FIG. 23
  cytokine inhibition, IFN-γ: up to 95%
  cytokine inhibition, IL-1β: up to 81%
  cytokine inhibition, IL-6: up to 74%
  cytokine inhibition, IL-8: up to 85%
  cytokine inhibition, IL-10: up to 98%
  cytokine inhibition, IL-12: up to 76%
  cytokine inhibition, IL-17: up to 83%
  cytokine inhibition, IL-23: up to 95%
  cytokine inhibition, TNF-α: up to 74%
[1]; HS patients
  inhibition of disease-relevant cytokines ex vivo, maximum: up to 84%
[1]; HS patients, FIG. 23
  cytokine inhibition, IFN-γ: up to 76%
  cytokine inhibition, IL-1β: up to 57%
  cytokine inhibition, IL-6: up to 50%
  cytokine inhibition, IL-8: up to 59%
  cytokine inhibition, IL-10: up to 52%
  cytokine inhibition, IL-12: up to 84%
  cytokine inhibition, IL-17: up to 46%
  cytokine inhibition, TNF-α: up to 54%
[1]; HS/AD patients, median of maximum change from baseline Days 14-28
  inhibition of 9 disease-relevant cytokines ex vivo, maximum: up to 98%
[2]
  inhibition of BCRP efflux: inhibited BCRP efflux
  substrate of breast cancer resistance protein (BCRP): substrate
[3]
  IC50 values, inhibition of proinflammatory cytokine production (IL-6, TNF-α, GM-CSF, IL-8): low nM range
[4]
  penetration into the central nervous system (CNS): limited penetration
  tissue distribution: extensively distributed into tissues
[5]
  inhibition of IFN-γ: up to 85%
  inhibition of IL-1β: up to 68%
  inhibition of IL-6: up to 54%
  inhibition of IL-8: up to 46%
  inhibition of IL-10: up to 50%
  inhibition of IL-12: up to 72%
  inhibition of IL-17: up to 46%
  inhibition of TNF-α: up to 59%
[6]; [9]
  Mean Maximum Percent Change from Baseline in ex vivo IFNγ induction: −97%^2
  Mean Maximum Percent Change from Baseline in ex vivo IL1β induction: −92%^1
  Mean Maximum Percent Change from Baseline in ex vivo IL6 induction: −88%^1
  Mean Maximum Percent Change from Baseline in ex vivo IL8 induction: −54%^
  Mean Maximum Percent Change from Baseline in ex vivo IL10 induction: −89%^1
  Mean Maximum Percent Change from Baseline in ex vivo IL12 induction: −93%^1
  Mean Maximum Percent Change from Baseline in ex vivo IL17 induction: −79%^1
  Mean Maximum Percent Change from Baseline in ex vivo TNFα induction: −88%^2
[6]; SAD, R848- or LPS-mediated induction, whole blood, 24-48 h post-dose
  mean maximum ex vivo cytokine inhibition: up to 97%
[6]; SAD, whole blood, maxima across cytokines
  inhibition of R848 or LPS induction of 8 different pro-inflammatory cytokines: 79-97%
Phase 1 Part C safety
  course of QTc prolongation with continued dosing: resolution to baseline by Day 28; also recorded: spontaneously resolved to baseline by Day 28
  serious adverse events: no serious adverse events
  severity of adverse events (headache, fatigue, diarrhea): predominantly mild
Phase 1 Part C safety; 75 mg QD fed, 28 days, HS/AD patients
  safety and tolerability: generally safe and well-tolerated
Phase 1 Part C safety; Days 7-14
  QTcF prolongation: modest, non-adverse QTcF prolongation
Phase 1 MAD safety
  safety and tolerability: safe and well-tolerated
[7]; FIG. 36
  disease severity in patient HS-10: from moderate to mild
[7]; HS patients, FIG. 30
  AN count of 0/1/2 response rate: 42-50%
  AN count reduction: 46-51%
[7]; HS patients, FIG. 31
  HiSCR50 response rate: 42-50%
[7]; HS patients, FIG. 32
  reduction in Pain NRS: 49-50%
  response rate in Pain NRS30: 50-60%
[7]; HS patients, FIG. 33
  reduction in Peak Pruritus NRS: 62-68%
[7]; All Patients (n = 12)
  ΔAN Count: −46%
  ΔPain NRS: −49%
  ΔPeak Pruritis NRS: −62%
  Responders: AN Count 0/1/2: 42%
  Responders: HiSCR50: 42%
  Responders: HiSCR75: 25%
  Responders: Pain NRS30: 50%
[7]; Moderate/Severe (n = 10)
  ΔAN Count: −51%
  ΔPain NRS: −55%
  ΔPeak Pruritis NRS: −68%
  Responders: AN Count 0/1/2: 50%
  Responders: HiSCR50: 50%
  Responders: HiSCR75: 50%
  Responders: Pain NRS30: 60%
[7]; all HS patients
  HS-PGA scores: stable or improved (5 of 12)
[7]; moderate disease at baseline, FIG. 35
  lesions and symptoms in patient HS-3: complete clearing of lesions and symptoms
[8]
  skin concentration of Compound A in HS or AD patient compared to healthy volunteer: about 2 fold
